According to EP4741414A1, “PEPTIDE HAVING CELL MEMBRANE PERMEABILITY AND SCREENING METHOD THEREFOR” (priority 2023, dated 2025):
Primed or numbered codes have the meaning given here. No end group written: not given here. PEG8′ = PEG8 linker (eight-unit polyethylene glycol spacer); FAM = fluorescein amidite

Experiments:
THP-1 macrophages = assay: Intracellular delivery of Alexa 647-labeled IgG-peptide conjugates to THP-1 macrophages; type: cell-based; details: for intracellularly delivered amount into macrophages: final concentration 1 µM, compared with R001, R005 conjugates, FIG. 14; for intracellularly delivered amount into macrophages / intracellular delivery amount of IgG: uptake time 1 h; for intracellular delivery amount of IgG: final concentration 5 µM, versus IgG, FIG. 12, FIG. 13; for cell-type-selective plasma membrane-penetrating activity: macrophages versus A549 cells, 1 µM, FIG. 16
Excerpt: The reaction liquid was applied to a Zeba spin desalting column (7K MWCO) equilibrated with PBS, and an unreacted cross-linking agent was removed. Thus, an IgG fraction was recovered. The peptides (synthesized by Eurofins Genomics K.K., the amino acid sequences of the peptides that are each conjugated with the IgG are shown in the following table) obtained by the above-mentioned screening, the peptides each including an amino acid sequence and each having C at its N-terminal, were each dissolved in DMSO so that a 10 mM DMSO solution was obtained. The DMSO solution of the peptide whose molar amount was 5 times as large as that of the IgG was added to the recovered IgG fraction, and EDTA was further added to the mixture so that its final concentration was 1 mM, followed by stirring by inversion at 25°C for 1 hour. After that, a fivefold molar amount of cysteine was added to the mixture, and the whole was stirred by inversion at 25°C for 30 minutes. The reaction liquid was applied to a Zeba spin desalting column (7K MWCO) equilibrated with PBS, and the peptide and cysteine that were unreacted, and EDTA were removed. Thus, an IgG-peptide conjugate was recovered.
The assay was conducted using THP-1 macrophages, which had been seeded in a 96-well plate at 20,000 cells/well, and had already been activated with PMA, IFN γ, and LPS. […] Images acquired with the all-in-one fluorescence microscope BZ-X810 (Keyence Corporation) were analyzed using the accompanying software BZ-X800 Analyzer. The uptake ratio at an uptake time of 1 h was compared based on the ratio of integrated red fluorescence intensity to integrated blue fluorescence intensity.
The uptake ratios of the proteins at an uptake time of 1 hour, which were each determined from the ratio of the brightness (integrated) of a red color to the brightness (integrated) of a blue color, were compared to each other.

[1] = test system: three-dimensional skin model EpiDerm Full Thickness 400
Description: A three-dimensional skin model EpiDerm Full Thickness 400 was prepared in accordance with the manual of its manufacturer in the same manner as in Experimental Example 8. […] As a control, the known cell-penetrating peptide TAT (the sequence obtained by removing C at the N-terminal from the amino acid sequence shown in SEQ ID NO: 51) was used, and the N-terminal side thereof was modified with FAM (similarly synthesized by Eurofins Genomics K.K., theoretical molecular weight: 1,979.2).
100 Microliters of a 1% DMSO-containing PBS solution of each of the FAM-modified peptides was added to a central portion on the donor side of a cup in which the skin model was built to initiate the penetrability assay (n=3). After incubation at 37 °C under 5% CO2 for 24 h, the medium outside the cup was collected, and the concentration of peptide that penetrated the skin model was quantified fluorometrically using a microplate reader (TECAN Spark; excitation wavelength: 494 nm, emission wavelength: 521 nm).

A549 cells = assay: Intracellular delivery of Alexa 647-labeled IgG-peptide conjugates to A549 cells; type: cell-based; details: for cell-type-selective plasma membrane-penetrating activity: A549 cells versus macrophages, 1 µM, FIG. 16; for intracellularly delivered amount into A549 cells: final concentration 1 µM, uptake time 1 h, compared with T001, T006 conjugates, FIG. 15
Description: Cells 1 hour after the addition of the protein solution were observed and photographed with an all-in-one fluorescence microscope BZ-X810 (Keyence Corporation) in the same manner as in Experimental Example 14 except that A549 cells cultured in the same manner as in Experimental Example 11 were used, followed by image analysis with software BZ-X800 Analyzer included therein. The uptake ratios of the proteins at an uptake time of 1 hour, which were each determined from the ratio of the brightness (integrated) of a red color to the brightness (integrated) of a blue color, were compared to each other. The results are shown in FIG. 15 (in the figure, the height of a bar represents the average of "n" values (n=2 to 3) and an error bar represents its standard deviation).

**Q.** How did the “intracellularly delivered amount into macrophages” value (THP-1 macrophages) turn out when CRWPLWMWFVW [T001] was run?
**A.** greater increase in the intracellularly delivered amount into macrophages

**Q.** What about the “intracellular delivery amount of IgG” value (THP-1 macrophages) of the same substance?
**A.** increased the intracellular delivery amount of IgG

**Q.** What about the “cell-type-selective plasma membrane-penetrating activity” value (THP-1 macrophages) of the same substance?
**A.** cell-type-selective plasma membrane-penetrating activity in macrophages

**Q.** With “FAM-labeled SEQ ID NO: 40 peptide: N-terminal side of the peptide represented by SEQ ID NO: 40 modified with fluorescein amidite (FAM) through a PEG8 linker ({FAM-PEG8′}-RWNCVSCAFL; cysteine pairing not given here)” as the substance, how does the “penetrability (ratio of penetrated amount outside the cup to added amount)” value [1] read?
**A.** 49.8±10.0%

**Q.** With CGKEGGSRWLIFHYMLLGG [T005] as the substance, how does the “intracellular delivery amount of IgG” value (THP-1 macrophages) read?
**A.** increased the intracellular delivery amount of IgG

**Q.** Which results are given for CLFKAWLGVYH [R001]?
**A.** cell-type-selective plasma membrane-penetrating activity (A549 cells): cell-type-selective plasma membrane-penetrating activity in A549 cells; intracellularly delivered amount into A549 cells (A549 cells): greater increase in the intracellularly delivered amount into A549 cells

**Q.** “CYGRKKRRQRRR (CYGRKKRRQRRR-NH2; also: conjugated to Alexa 647-IgG via maleimide-PEG2-NHS) [TAT, Alexa 647-labeled IgG bonded with known membrane-permeable peptide TAT via Maleimide-PEG2-NHS Ester, reference compound]” was tested. Which “intracellular delivery amount of IgG” value (THP-1 macrophages) did it give?
**A.** no increase in cellular translocation was observed

**Q.** CGGSRVVSYLAEYH [R005] was tested. Which “cell-type-selective plasma membrane-penetrating activity” value (A549 cells) did it give?
**A.** cell-type-selective plasma membrane-penetrating activity in A549 cells

**Q.** And the “intracellularly delivered amount into A549 cells” value (A549 cells)?
**A.** greater increase in the intracellularly delivered amount into A549 cells

**Q.** For CRYYAHWLHYM [T006], which “intracellularly delivered amount into macrophages” value (THP-1 macrophages) is on record?
**A.** greater increase in the intracellularly delivered amount into macrophages

**Q.** And the “intracellular delivery amount of IgG” value (THP-1 macrophages)?
**A.** increased the intracellular delivery amount of IgG

**Q.** What about the “cell-type-selective plasma membrane-penetrating activity” value (THP-1 macrophages) of the same substance?
**A.** cell-type-selective plasma membrane-penetrating activity in macrophages
